# Reference: patent US9464306B2, “Method for producing L-amino acid” (KANEKA CORPORATION, priority 2008, dated 2016)
# Like-named read-outs stand apart in the source and are kept apart here.
# What was measured:
# [1] = pH 8
# Method: (§1) Here, the “dissolved concentration” refers to percentage (%) by weight of an amino acid dissolvable in the reaction mixture after completion of the reaction, and can be measured by the following method. That is, the L-amino acid is added to the reaction mixture after completion of the reaction until the L-amino acid is no longer dissolved. After that, the mixture is centrifuged, and the resulting supernatant is filtered. The amino acid present in the filtrate is quantitatively analyzed by high performance liquid chromatography, and the percentage (%) by weight of the amino acid is calculated.
# [2] = Dissolved concentration of the L-amino acid in the reaction mixture after completion of the reaction (HPLC); conditions: substrate solution pH 8, 45° C.
# Method: as §1
# [3] = L-amino acid dissolvable in reaction mixture after reaction of the N-succinyl-DL-amino acid with liquid cultures of E. coli HB101 (pNHK) and E. coli HB101 (pNIG)
dissolved concentration [1] [% by weight],Molecule,"dissolved concentration [2, 3] [% by weight]",dissolved concentration ([2]; L-amino acid dissolvable in reaction mixture after reaction with liquid culture of E. coli HB101 (pNIGHK)) [% by weight]
≤ 0.5,L-2-indanylglycine,–,–
–,"N[C@@H](Cc1ccccc1)C(=O)O [L-phenylalanine, reference compound]",4,–
–,N[C@@H](Cc1ccc(Br)cc1)C(=O)O [L-4-bromophenylalanine],≤ 0.5,–
–,C=CCCCCC[C@H](N)C(=O)O [L-6-heptenylglycine],≤ 0.5,≤ 0.5
–,N[C@@H](Cc1cccc(F)c1)C(=O)O [L-3-fluorophenylalanine],≤ 0.5,–
